Assay [1] deals with human GABAA α2β2γ1 receptor (Homo sapiens (Human), UniProt P47869+Q8N1C3). The experiment in a line: Radioligand binding assay, competition for [3H]RO7239181, γ1-containing GABAA subtypes.
Assay [2] concerns the target human GABAA α1β3γ2 receptor (Homo sapiens (Human), UniProt P14867+P18507). The experiment in a line: Radioligand binding assay, competition for [3H]Flumazenil, γ2-containing GABAA subtypes. Conditions: for γ2/γ1 Selectivity Ratio: Ki α1β3γ2 (nM)/Ki α2β2γ1 (nM); for LogSel: Log[Ki α1β3γ2 (nM)/Ki α2β2γ1 (nM)]. The procedure, abridged:
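Competition against [3H]Flumazenil binding in HEK293F cells transiently expressing human α1β3γ2 receptors, pellets resuspended in mannitol buffer pH 7,2-7,4. Incubated to equilibrium 1 hour at 4° C, filtered and washed with ice-cold 50 mM Tris pH 7.5, bound radioactivity by liquid scintillation counting. Ki values are means of two determinations.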

The target in assay [3] is human GABAA α5β2γ1 receptor (Homo sapiens (Human), UniProt P31644+Q8N1C3). As to the kind of experiment: Radioligand binding assay, competition for [3H]RO7239181, γ1-containing GABAA subtypes.
Setting [4] is: Ki h-GABAA α2β2γ1, membranes of HEK293F cells, [3H]RO7239181 20-30 nM, Table 1.
The mark [5] stands for this setting: Ki h-GABAA α2β2γ1, membranes of HEK293F cells, [3H]RO7239181 20-30 nM, Table 2.
Setting [6] is: HEK293F cells, [3H]Flumazenil 1 nM, Table 1, read-out: Ki h-GABAA α1β3γ2.

Like-named read-outs stand apart in the source and are kept apart here.

Turning to `C[C@@H]1N=C(c2c(F)cccc2F)c2c(sc3c2CCCCC3)-n2ccc(=O)nc21` [Example 7, (8S)-10-(2,6-difluorophenyl)-8-methyl-19-thia-2,6,9-triazatetracyclo[9.8.0.02,7.012,18]nonadeca-1(11),3,6,9,12(18)-pentaen-5-one], the Ki in assay [1] (setting [4]) is 37.5 nM; in assay [1] (setting [5]), 37.5 nM; in assay [2], 7690 nM; in assay [3], 2.24 nM. In assay [2] (Table 1), the “γ2/γ1 Selectivity Ratio” value came out at 205.1. This molecule showed a LogSel in assay [2] (Table 1) of 2.31.

Turning to `Cc1nnc2n1-c1sc3c(c1C(c1c(F)cccc1F)=N[C@H]2C)CCCC(F)(F)C3` [Example 8, (7S)-9-(2,6-difluorophenyl)-15,15-difluoro-3,7-dimethyl-18-thia-2,4,5,8-tetrazatetracyclo[8.8.0.02,6.011,17]octadeca-1(10),3,5,8,11(17)-pentaene], the Ki in assay [1] (setting [4]) amounted to 51.3 nM; in assay [1] (setting [5]) it was 51.3 nM; in assay [2] it was 2760 nM; in assay [3] it was 12.8 nM. Moreover, in assay [2] (Table 1), the “γ2/γ1 Selectivity Ratio” value is recorded as 53.8. Moreover, the LogSel in assay [2] (Table 1) turned out to be 1.73.

For the molecule `Cc1nnc2n1-c1sc3c(c1C(c1c(F)cccc1F)=NC2)CCCCO3` [Example 18, 9-(2,6-difluorophenyl)-3-methyl-16-oxa-18-thia-2,4,5,8-tetrazatetracyclo[8.8.0.02,6.011,17]octadeca-1(10),3,5,8,11(17)-pentaene], the Ki was determined as 20.9 nM in assay [1] (setting [4]), 20.9 nM in assay [1] (setting [5]), 428 nM in assay [2] and 1.84 nM in assay [3]. Moreover, in assay [2] (Table 1), the “γ2/γ1 Selectivity Ratio” value was 20.5. Further, in assay [2] (Table 1), the LogSel was 1.31.

For `Cc1nnc2n1-c1sc3c(c1C(c1c(F)cccc1F)=N[C@H]2C)CCCCO3` [Example 19, (7S)-9-(2,6-difluorophenyl)-3,7-dimethyl-16-oxa-18-thia-2,4,5,8-tetrazatetracyclo[8.8.0.02,6.011,17]octadeca-1(10),3,5,8,11(17)-pentaene], the Ki was 16.8 nM in assay [1] (setting [4]), 16.9 nM in assay [1] (setting [5]), 615 nM in assay [2] and 1.86 nM in assay [3]. Moreover, the “γ2/γ1 Selectivity Ratio” value in assay [2] (Table 1) is on record as 36.5. In assay [2] (Table 1), this molecule came in with a LogSel of 1.56.

Take `Cc1nc2n(n1)-c1sc3c(c1C(c1c(F)cccc1F)=N[C@H]2C)CCCCC3` [Example 20, (7S)-9-(2,6-difluorophenyl)-4,7-dimethyl-18-thia-2,3,5,8-tetrazatetracyclo[8.8.0.02,6.011,17]octadeca-1(10),3,5,8,11(17)-pentaene]: the Ki in assay [1] (setting [4]) came out at 12.6 nM; in assay [1] (setting [5]) it was 12.6 nM; in assay [2] it was 1280 nM; in assay [3], 0.98 nM. For the same molecule, the “γ2/γ1 Selectivity Ratio” value in assay [2] (Table 1) turned out to be 101.9. In assay [2] (Table 1), the LogSel is on record as 2.01.

Regarding `Cc1nnc2n1-c1sc3c(c1C(c1c(F)cccc1F)=N[C@H]2C)COCCO3` [Example 21, (7S)-9-(2,6-difluorophenyl)-3,7-dimethyl-13,16-dioxa-18-thia-2,4,5,8-tetrazatetracyclo[8.8.0.02,6.011,17]octadeca-1(10),3,5,8,11(17)-pentaene], the Ki in assay [1] (Ki h-GABAA α2β2γ1, Table 3, reference compounds and examples) worked out at 20.2 nM; in assay [1] (setting [4]) it was 20.2 nM; in assay [1] (setting [5]), 20.2 nM; in assay [2], 1360 nM; in assay [2] (read-out: Ki h-GABAA α1β3γ2, Table 3, reference compounds and examples), 1360 nM; in assay [3], 2.33 nM. For the same molecule, the “γ2/γ1 Selectivity Ratio” value in assay [2] (Table 1) and in assay [2] (Table 3) was 67.2 each time. The LogSel worked out at 1.83 in assay [2] (Table 1) and 1.8 in assay [2] (Table 3).

Regarding `C[C@@H]1N=C(c2c(F)cccc2F)c2c(sc3c2COCCO3)-n2nc(C(=O)N3CCC3)nc21` [Example 22, azetidin-1-yl-[(7S)-9-(2,6-difluorophenyl)-7-methyl-13,16-dioxa-18-thia-2,3,5,8-tetrazatetracyclo[8.8.0.02,6.011,17]octadeca-1(10),3,5,8,11(17)-pentaen-4-yl]methanone], the inhibition constant (Ki) in assay [1] (setting [4]) was determined as 10 nM; in assay [1] (setting [5]), 10 nM; in assay [2] (setting [6]), 3040 nM; in assay [3], 1.12 nM. Besides, in assay [2] (Table 1), the “γ2/γ1 Selectivity Ratio” value is on record as 304.3. In assay [2] (Table 1), this molecule showed a LogSel of 2.48.

As for `[2H]C1([2H])OCc2c(sc3c2C(c2c(F)cccc2F)=N[C@@H](C)c2nc(C(=O)N4CCC4)nn2-3)OC1([2H])[2H]` [Example 23, azetidin-1-yl-[(7S)-14,14,15,15-tetradeuterio-9-(2,6-difluorophenyl)-7-methyl-13,16-dioxa-18-thia-2,3,5,8-tetrazatetracyclo[8.8.0.02,6.011,17]octadeca-1(10),3,5,8,11(17)-pentaen-4-yl]methanone], the Ki came to 6.3 nM in assay [1] (setting [4]), 6.3 nM in assay [1] (setting [5]), 8420 nM in assay [2] (setting [6]) and 2.49 nM in assay [3]. Besides, in assay [2] (Table 1), the “γ2/γ1 Selectivity Ratio” value is 1329.5. In assay [2] (Table 1), this molecule gave a LogSel of 3.12.

For the molecule `C[C@@H]1N=C(c2c(F)cccc2F)c2c(sc3c2COCCO3)-n2nc(C(=O)N3CC(F)C3)nc21` [Example 24, (3-fluoroazetidin-1-yl)-[(7S)-9-(2,6-difluorophenyl)-7-methyl-13,16-dioxa-18-thia-2,3,5,8-tetrazatetracyclo[8.8.0.02,6.011,17]octadeca-1(10),3,5,8,11(17)-pentaen-4-yl]methanone], the inhibitory constant (Ki) was 3.75 nM in assay [1] (setting [4]), 3.8 nM in assay [1] (setting [5]), 2600 nM in assay [2] (setting [6]) and 1.25 nM in assay [3]. Also, the “γ2/γ1 Selectivity Ratio” value in assay [2] (Table 1) is listed as 691.7. Moreover, the LogSel in assay [2] (Table 1) is recorded as 2.84.

Take `C[C@@H]1N=C(c2c(F)cccc2F)c2c(sc3c2COCCO3)-n2nc(C(=O)NCCF)nc21` [Example 25, (7S)-9-(2,6-difluorophenyl)-N-(2-fluoroethyl)-7-methyl-13,16-dioxa-18-thia-2,3,5,8-tetrazatetracyclo[8.8.0.02,6.011,17]octadeca-1(10),3,5,8,11(17)-pentaene-4-carboxamide]: the inhibitory constant (Ki) in assay [1] (setting [4]) amounted to 29 nM; in assay [1] (setting [5]) it was 29 nM; in assay [2] (setting [6]) it was 2190 nM; in assay [3] it was 2.1 nM. In addition, the “γ2/γ1 Selectivity Ratio” value in assay [2] (Table 1) amounted to 75.4. In assay [2] (Table 1), this molecule yielded a LogSel of 1.88.

As to `Cc1cn2c(nc1=O)[C@H](C)N=C(c1c(F)cccc1F)c1c-2sc2c1CCCCC2` [Example 26, (8S)-10-(2,6-difluorophenyl)-4,8-dimethyl-19-thia-2,6,9-triazatetracyclo[9.8.0.02,7.012,18]nonadeca-1(11),3,6,9,12(18)-pentaen-5-one], the inhibitory constant (Ki) in assay [1] (setting [4]) is 32 nM; in assay [1] (setting [5]) it was 32 nM; in assay [2], 6040 nM; in assay [3] it was 3.78 nM. The “γ2/γ1 Selectivity Ratio” value in assay [2] (Table 1) was 188.9. Further, the LogSel in assay [2] (Table 1) is recorded as 2.28.

For the molecule `Cc1nnc2n1-c1sc3c(c1C(c1c(F)cccc1F)=N[C@H]2C)CC[C@@H](O)CC3` [Example 27, (7S,14R)-9-(2,6-difluorophenyl)-3,7-dimethyl-18-thia-2,4,5,8-tetrazatetracyclo[8.8.0.02,6.011,17]octadeca-1(10),3,5,8,11(17)-pentaen-14-ol], the Ki in assay [1] (setting [4]) is 42.8 nM; in assay [1] (setting [5]) it was 42.8 nM; in assay [2] it was 11400 nM; in assay [3], 10.9 nM. The “γ2/γ1 Selectivity Ratio” value in assay [2] (Table 1) was found to be 266.4. This molecule yielded a LogSel in assay [2] (Table 1) of 2.43.

For the molecule `Cc1nc2n(n1)-c1sc3c(c1C(c1c(F)cccc1F)=N[C@H]2C)COCCO3` [Example 28, (7S)-9-(2,6-difluorophenyl)-4,7-dimethyl-13,16-dioxa-18-thia-2,3,5,8-tetrazatetracyclo[8.8.0.02,6.011,17]octadeca-1(10),3,5,8,11(17)-pentaene], the Ki in assay [1] (setting [4]) came out at 5.5 nM; in assay [1] (setting [5]) it was 5.5 nM; in assay [2], 1940 nM; in assay [3] it was 0.89 nM. The “γ2/γ1 Selectivity Ratio” value in assay [2] (Table 1) is on record as 353.3. For the same molecule, the LogSel in assay [2] (Table 1) amounted to 2.55.

As to `C[C@@H]1N=C(c2c(F)cccc2F)c2c(sc3c2COCCO3)-n2nc(C(=O)N3CC(OC(C)(C)C)C3)nc21` [Example 29, (3-tert-butoxyazetidin-1-yl)-[(7S)-9-(2,6-difluorophenyl)-7-methyl-13,16-dioxa-18-thia-2,3,5,8-tetrazatetracyclo[8.8.0.02,6.011,17]octadeca-1(10),3,5,8,11(17)-pentaen-4-yl]methanone], the Ki stood at 7.7 nM in assay [1] (setting [4]), 7.7 nM in assay [1] (setting [5]), 2830 nM in assay [2] (setting [6]) and 1.82 nM in assay [3]. Further, the “γ2/γ1 Selectivity Ratio” value in assay [2] (Table 1) is 366.9. For the same molecule, the LogSel in assay [2] (Table 1) was 2.56.

As to `Cc1nnc2n1-c1sc3c(c1C(c1c(F)cccc1F)=N[C@H]2C)COC[C@H](C)O3` [Example 30, (7S,15S)-9-(2,6-difluorophenyl)-3,7,15-trimethyl-13,16-dioxa-18-thia-2,4,5,8-tetrazatetracyclo[8.8.0.02,6.011,17]octadeca-1(10),3,5,8,11(17)-pentaene], the Ki was 36.9 nM in assay [1] (setting [4]), 36.9 nM in assay [1] (setting [5]), 1830 nM in assay [2] and 3.28 nM in assay [3]. Besides, in assay [2] (Table 1), the “γ2/γ1 Selectivity Ratio” value is recorded as 49.6. In assay [2] (Table 1), this molecule showed a LogSel of 1.70.

By Ki is commonly meant a measure of affinity in units of concentration, obtained from inhibition or displacement.

Values taken from patent publication US20240294543A1, “CYCLOHEPTA-THIENO-DIAZEPINE DERIVATIVES AS GABA A GAMMA1 PAM” (Hoffmann-La Roche Inc., priority 2021, published 2024).
